Legend:
[1] = Stability of capsinoid containing fatty acid, preserved in hexane at 5° C., purity by HPLC; type: physicochemical
Experimental: For example, dihydrocapsiate was synthesized using a small excess of fatty acid, and dihydrocapsiate obtained by preparatively separating together with the excess fatty acid remaining in about 2 wt % relative to dihydrocapsiate was analyzed by HPLC.
(§1) The HPLC measurement conditions of capsinoid are as follows. HPLC conditions: column: Inertsil C8 3 u μm (diameter 4.0 mm×100 mm) eluent: A mixed solvent of eluents A, B shown below and a buffer was eluted by gradient elution method. […]
(§2) eluent A: CH3CN:buffer=80:20 eluent B: CH3CN:buffer=0:100 […]
(§3) temperature: room temperature
Capsiate obtained in the same manner as in Example 5, which contained 3.2 wt % of fatty acid, was analyzed by HPLC to find the purity of 97.8 area %. This capsiate was preserved in a hexane solvent at 5° C. for 30 days and analyzed by HPLC.
Dihydrocapsiate obtained in the same manner as in Example 15, which contained 2.0 wt % of fatty acid, was analyzed by HPLC to find 99.2 area %. This dihydrocapsiate was preserved in a hexane solvent at 5° C. for 30 days and analyzed by HPLC.

[2] = Stability of vanillyl decanoate in acetonitrile with or without decanoic acid, purity by HPLC; type: physicochemical
Description: When ester compound (3) is separated and purified by column chromatography, fatty acid (1) present in excess in the reaction mixture has an Rf value similar to that of ester compound (3); therefore, the separation and purification of ester compound (3) is associated with difficulty. […] For example, when vanillyl decanoate was synthesized from decanoic acid and vanillyl alcohol, separated and purified from decanoic acid by silica gel column chromatography to give pure vanillyl decanoate, which was dissolved in acetonitrile and analyzed by HPLC. As a result, the purity of vanillyl decanoate was 95.6 area %. However, when the sample was reanalyzed 62 hours later, the purity decreased to 82.0 area %. […] Vanillyl decanoate is considered to have become unstable upon separation from decanoic acid. Therefore, fatty acid (1), difficult to be separated from ester compound (3), is preferably left coexisted rather than being separated, from the aspect of stability of ester compound (3).
For example, when 9.1 wt % of decanoic acid was added, in acetonitrile, to pure vanillyl decanoate separated from decanoic acid, the purity of vanillyl decanoate was 97.6 area % even after 19.5 hours and the purity was maintained.
as §1, §2, §3
Vanillyl decanoate was separately synthesized from vanillyl alcohol and decanoic acid, and its stability was examined. Decanoic acid was separated by silica gel column chromatography, and the purified product was dissolved in acetonitrile and analyzed by […]
HPLC to find 95.6 area %. When the sample was reanalyzed 62 hours later, the purity decreased to 82.0 area %, and vanillyl decanoate was confirmed to have been decomposed.
Decanoic acid was separated by silica gel column chromatography, and the purified product, vanillyl decanoate, was dissolved in acetonitrile and analyzed by HPLC 9 hours later to find 90.4 area %. To the acetonitrile solution of the purified product, vanillyl decanoate, was added 9.1 wt % of decanoic acid, and the mixture was analyzed by HPLC 19.5 hours later to find 97.6 area %, showing increase in the purity as compared to the absence of decanoic acid addition. Similarly, 16.7 wt %, 28.7 wt % and 44.8 wt % of decanoic acid was added to vanillyl decanoate to result in higher purities of 98.1 area %, 98.1 area % and 97.9 area % as compared to the absence of decanoic acid addition.

COc1cc(COC(=O)CCCC/C=C/C(C)C)ccc1O [capsiate]
purity by HPLC ([1]; containing 3.2 wt % of fatty acid, before preservation): 97.8 area %
purity by HPLC ([1]; containing 3.2 wt % of fatty acid, preserved in hexane at 5° C. for 30 days): 97.6 area %

COc1cc(COC(=O)CCCCCCC(C)C)ccc1O [dihydrocapsiate]
purity by HPLC ([1]; containing 2.0 wt % of fatty acid, preserved in hexane at 5° C. for 30 days): 99.3 area %
time stably preserved without decomposition ([1]; with about 2 wt % excess fatty acid, in hexane at 5° C.): at least 30 days

CCCCCCCCCC(=O)OCc1ccc(O)c(OC)c1 [vanillyl decanoate]
purity by HPLC ([2]; acetonitrile solution, 9.1 wt % of decanoic acid added, 19.5 hours later): 97.6 area %
purity by HPLC ([2]; acetonitrile solution, 16.7 wt % of decanoic acid added): 98.1 area %
purity by HPLC ([2]; acetonitrile solution, 28.7 wt % of decanoic acid added): 98.1 area %
purity by HPLC ([2]; acetonitrile solution, 44.8 wt % of decanoic acid added): 97.9 area %
purity by HPLC ([2]; pure product separated from decanoic acid, dissolved in acetonitrile, first analysis): 95.6 area %
purity by HPLC ([2]; pure product separated from decanoic acid, in acetonitrile, reanalyzed 62 hours later): 82.0 area %
purity by HPLC ([2]; purified product without decanoic acid, in acetonitrile, 9 hours later): 90.4 area %

Reference: patent US20100152291A1, “PRODUCTION METHOD OF CAPSINOID BY DEHYDRATING CONDENSATION, STABILIZING METHOD OF CAPSINOID, AND CAPSINOID COMPOSITION” (AJINOMOTO CO., INC., priority 2005, published 2010)
